Experimental data published in patent US10562912B2 (C&C Research Laboratories, priority 2013, dated 2020).

Key:
Type in all cases: cell-based
STAT3 = target: T1, STAT3 (Homo sapiens, UniProt P40763); assay: STAT3 reporter gene assay (luciferase), LNCaP stable cell line (pSTAT3-TA-luc), IL-6 stimulation
T1 construct: plasmid pSTAT3-TA-luc), which contains a stably operating STAT3 promoter; endogenous in cells
Outline: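 Cytotoxicity was run on a duplicate plate with CellTiter-Glo, while the other plate gave luciferase read-outs from lysed LNCaP pSTAT3-TA-luc reporter cells. Cells were treated with graded compound concentrations plus IL-6 (10 ng/mL final) for 24–48 h in 3% DCC-FBS medium. Unstimulated and stimulated wells served as negative and positive controls.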

AGS = assay: Cell growth inhibition assay, stomach cancer cell line AGS; details: Homo sapiens; AGS stomach cancer cell line, 3,000 cells/well
MDA-MB-231 = assay: Cell growth inhibition assay, breast cancer cell line MDA-MB-231; details: Homo sapiens; MDA-MB-231 breast cancer cell line, 5,000 cells/well
LNCaP = assay: Cell growth inhibition assay, prostate cancer cell line LNCaP (medium with 10 ng/mL IL-6); details: Homo sapiens, medium supplemented with 10 ng/mL of IL-6, 10,000 cells/well

T1 sequence (P40763 whole entry): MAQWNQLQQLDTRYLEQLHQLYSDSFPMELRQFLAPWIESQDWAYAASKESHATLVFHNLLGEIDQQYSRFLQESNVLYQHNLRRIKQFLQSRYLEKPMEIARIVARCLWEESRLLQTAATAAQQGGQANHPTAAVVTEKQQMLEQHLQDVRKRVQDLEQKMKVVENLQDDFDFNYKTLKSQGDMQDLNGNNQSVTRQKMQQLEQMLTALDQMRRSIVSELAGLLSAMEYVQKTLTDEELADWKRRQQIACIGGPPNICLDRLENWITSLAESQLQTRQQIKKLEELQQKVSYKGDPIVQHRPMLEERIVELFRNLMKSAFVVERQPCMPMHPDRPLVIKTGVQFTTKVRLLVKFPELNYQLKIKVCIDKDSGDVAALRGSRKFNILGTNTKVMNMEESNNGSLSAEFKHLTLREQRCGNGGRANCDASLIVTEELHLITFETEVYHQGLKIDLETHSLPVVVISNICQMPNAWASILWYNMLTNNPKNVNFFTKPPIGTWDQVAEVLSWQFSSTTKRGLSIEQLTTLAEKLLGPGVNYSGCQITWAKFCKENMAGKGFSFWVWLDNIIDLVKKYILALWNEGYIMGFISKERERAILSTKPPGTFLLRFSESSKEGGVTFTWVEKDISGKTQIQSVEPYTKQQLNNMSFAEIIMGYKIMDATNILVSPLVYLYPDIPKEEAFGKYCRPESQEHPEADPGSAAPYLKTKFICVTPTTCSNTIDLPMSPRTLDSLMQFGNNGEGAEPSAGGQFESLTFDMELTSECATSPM

| Structure (SMILES) | IC50 (STAT3) | IC50 (AGS) | IC50 (MDA-MB-231) | IC50 (LNCaP) |
| --- | --- | --- | --- | --- |
| CS(=O)(=O)Nc1ccc2cc(C(=O)Nc3cccc(S(=O)(=O)c4ccccc4)c3)[nH]c2c1 [Example 395, 6-(methylsulfonamido)-N-(3-(phenylsulfonyl)phenyl)-1H-indole-2-carboxamide] | 2.1 µM | 20.6 µM | 4.2 µM | > 10 µM |
| CS(=O)(=O)Nc1ccc2cc(C(=O)Nc3cccc(S(=O)(=O)c4cccc(OC(F)(F)F)c4)c3)[nH]c2c1 [Example 396] | 2.5 µM | 11.8 µM | 1.2 µM | 8.9 µM |
| COc1cc(NC(=O)c2cc3ccc(NS(C)(=O)=O)cc3[nH]2)cc(S(=O)(=O)c2cccc(OC(F)(F)F)c2)c1 [Example 397, N-(3-methoxy-5-((3-(trifluoromethoxy)phenyl)sulfonyl)phenyl)-6-(methylsulfonamido)-1H-indole-2-carboxamide] | 3 µM | 8.7 µM | 2.8 µM | 5.8 µM |
| CS(=O)(=O)Nc1ccc2cc(C(=O)Nc3cc(C(F)(F)F)cc(S(=O)(=O)c4cccc(OC(F)(F)F)c4)c3)[nH]c2c1 [Example 398, 6-(methylsulfonamido)-N-(3-((3-(trifluoromethoxy)phenyl)sulfonyl)-5-(trifluoromethyl)phenyl)-1H-indole-2-carboxamide] | 1.6 µM | 5.2 µM | 1.2 µM | 2.6 µM |
| CS(=O)(=O)Nc1ccc2cc(C(=O)Nc3cc(C#N)cc(S(=O)(=O)c4cccc(OC(F)(F)F)c4)c3)[nH]c2c1 [Example 399, N-(3-cyano-5-((3-(trifluoromethoxy)phenyl)sulfonyl)phenyl)-6-(methylsulfonamido)-1H-indole-2-carboxamide] | 2.8 µM | 13.2 µM | 3.4 µM | > 10 µM |
| CC(C)COc1cc(NC(=O)c2cc3ccc(NS(C)(=O)=O)cc3[nH]2)cc(S(=O)(=O)c2cccc(OC(F)(F)F)c2)c1 [Example 400, N-(3-isobutoxy-5-((3-(trifluoromethoxy)phenyl)sulfonyl)phenyl)-6-(methylsulfonamido)-1H-indole-2-carboxamide] | 3.2 µM | 14.9 µM | 3.5 µM | > 10 µM |
| CS(=O)(=O)Nc1ccc2cc(C(=O)Nc3cc(OCC(F)F)cc(S(=O)(=O)c4cccc(OC(F)(F)F)c4)c3)[nH]c2c1 [Example 401, N-(3-(2,2-difluoroethoxy)-5-((3-(trifluoromethoxy)phenyl)sulfonyl)phenyl)-6-(methylsulfonamido)-1H-indole-2-carboxamide] | 4 µM | 7.3 µM | 2.5 µM | 8 µM |
